In the supplement of paper PMC10307832:

Columns and labels:
Assay in all cases: relative viability (nuclei count vs DMSO), 5 days (fraction); higher = more cells survive
[1] = system: ABC-1
Outline: (§1)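 Each reported value is a median over duplicate plates. It expresses relative viability: treated-well nuclei count divided by vehicle-well nuclei count. Lung cancer cell lines in 1536-well plates were dosed by pin tool a day after seeding, alone with one drug or with a fixed anchor-drug dose plus five library-drug doses (not always all listed) in √10 steps, and nuclei were counted after 5 days.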

[2] = system: COR-L23
Outline: as §1

[3] = system: EPLC-272H
Outline: as §1

[4] = system: HARA
Outline: as §1

[5] = system: HCC-15
Outline: as §1

[6] = system: HCC-78
Outline: as §1

[7] = system: LC-2-ad
Outline: as §1

[8] = system: LU99A
Outline: as §1

[9] = system: NCI-H1651
Outline: as §1

[10] = system: NCI-H1915
Outline: as §1

[11] = system: NCI-H1993
Outline: as §1

[12] = system: NCI-H2009
Outline: as §1

[13] = system: NCI-H2085
Outline: as §1

[14] = system: NCI-H2126
Outline: as §1

[15] = system: NCI-H2342
Outline: as §1

[16] = system: NCI-H2347
Outline: as §1

[17] = system: NCI-H358
Outline: as §1

[18] = system: NCI-H460
Outline: as §1

[19] = system: NCI-H522
Outline: as §1

[20] = system: NCI-H650
Outline: as §1

[21] = system: NCI-H838
Outline: as §1

[22] = system: PC-14
Outline: as §1

[23] = system: SW 1573
Outline: as §1

[24] = system: UMC-11
Outline: as §1

## CC(C)Oc1cc(Nc2nc(N[C@@H](C)c3ccc(F)cn3)ncc2Cl)n[nH]1 [AZ23] + CC(=O)c1c(C)c2cnc(Nc3ccc(N4CCNCC4)cn3)nc2n(C2CCCC2)c1=O [Palbociclib] (partner 0.5 µM)
[1]; first compound 0.01 µM
  relative viability: 0.765
[1]; first compound 0.03162 µM
  relative viability: 0.82
[1]; first compound 0.3162 µM
  relative viability: 0.694
[2]; first compound 0.01 µM
  relative viability: 0.239
[2]; first compound 0.03162 µM
  relative viability: 0.301
[2]; first compound 0.3162 µM
  relative viability: 0.254
[3]; first compound 0.03162 µM
  relative viability: 0.279
[3]; first compound 0.3162 µM
  relative viability: 0.315
[4]; first compound 0.01 µM
  relative viability: 0.254
[4]; first compound 0.03162 µM
  relative viability: 0.156
[4]; first compound 0.3162 µM
  relative viability: 0.213
[5]; first compound 0.01 µM
  relative viability: 0.881
[5]; first compound 0.03162 µM
  relative viability: 0.757
[5]; first compound 0.3162 µM
  relative viability: 0.799
[6]; first compound 0.01 µM
  relative viability: 0.533
[6]; first compound 0.03162 µM
  relative viability: 0.463
[6]; first compound 0.3162 µM
  relative viability: 0.544
[7]; first compound 0.01 µM
  relative viability: 0.593
[7]; first compound 0.03162 µM
  relative viability: 0.529
[7]; first compound 0.3162 µM
  relative viability: 0.501
[8]; first compound 0.01 µM
  relative viability: 0.39
[8]; first compound 0.03162 µM
  relative viability: 0.468
[8]; first compound 0.3162 µM
  relative viability: 0.371
[9]; first compound 0.01 µM
  relative viability: 0.523
[9]; first compound 0.03162 µM
  relative viability: 0.526
[9]; first compound 0.3162 µM
  relative viability: 0.505
[10]; first compound 0.01 µM
  relative viability: 0.571
[10]; first compound 0.03162 µM
  relative viability: 0.492
[10]; first compound 0.3162 µM
  relative viability: 0.5
[11]; first compound 0.01 µM
  relative viability: 0.559
[11]; first compound 0.03162 µM
  relative viability: 0.695
[11]; first compound 0.3162 µM
  relative viability: 0.477
[12]; first compound 0.01 µM
  relative viability: 0.2
[12]; first compound 0.03162 µM
  relative viability: 0.185
[12]; first compound 0.3162 µM
  relative viability: 0.196
[13]; first compound 0.01 µM
  relative viability: 0.435
[13]; first compound 0.03162 µM
  relative viability: 0.469
[13]; first compound 0.3162 µM
  relative viability: 0.435
[14]; first compound 0.01 µM
  relative viability: 0.332
[14]; first compound 0.03162 µM
  relative viability: 0.335
[14]; first compound 0.3162 µM
  relative viability: 0.342
[15]; first compound 0.01 µM
  relative viability: 0.516
[15]; first compound 0.03162 µM
  relative viability: 0.511
[15]; first compound 0.3162 µM
  relative viability: 0.509
[16]; first compound 0.01 µM
  relative viability: 0.441
[16]; first compound 0.03162 µM
  relative viability: 0.418
[16]; first compound 0.3162 µM
  relative viability: 0.398
[17]; first compound 0.01 µM
  relative viability: 0.129
[17]; first compound 0.03162 µM
  relative viability: 0.141
[17]; first compound 0.3162 µM
  relative viability: 0.13
[18]; first compound 0.01 µM
  relative viability: 0.0638
[18]; first compound 0.03162 µM
  relative viability: 0.146
[18]; first compound 0.3162 µM
  relative viability: 0.127
[19]; first compound 0.01 µM
  relative viability: 1.2
[19]; first compound 0.03162 µM
  relative viability: 1.01
[19]; first compound 0.3162 µM
  relative viability: 0.795
[20]; first compound 0.01 µM
  relative viability: 0.352
[20]; first compound 0.03162 µM
  relative viability: 0.309
[20]; first compound 0.3162 µM
  relative viability: 0.301
[21]; first compound 0.01 µM
  relative viability: 0.227
[21]; first compound 0.03162 µM
  relative viability: 0.23
[21]; first compound 0.3162 µM
  relative viability: 0.247
[22]; first compound 0.01 µM
  relative viability: 0.492
[22]; first compound 0.03162 µM
  relative viability: 0.567
[22]; first compound 0.3162 µM
  relative viability: 0.577
[23]; first compound 0.01 µM
  relative viability: 0.58
[23]; first compound 0.03162 µM
  relative viability: 0.467
[23]; first compound 0.3162 µM
  relative viability: 0.394
[24]; first compound 0.01 µM
  relative viability: 0.341
[24]; first compound 0.03162 µM
  relative viability: 0.338
[24]; first compound 0.3162 µM
  relative viability: 0.353
